Measured values as given in patent US20170318812A1, “Plant and Crop Growth Regulating/Biostimulant Formulations and Methods of Use” (Arysta Lifescience North America, LLC, priority 2014, published 2017).
Values joined by “and” are separate entries in the source; they are usually repeats but may differ in a detail not shown here. Identical values can stand only once.

Test system: BRADC Brachiaria decumbens (Surinam grass)
Assay: Ipfencarbazone biostimulant effect, early post emergence foliar application, greenhouse pots, plant height: Surinam grass
Assay type: in vivo
Conditions: for HEIGHT, percent of untreated check (APoC) / HEIGHT, treatment mean: BRADC BASILISK; for Plant HEIGHT, Mean / Plant HEIGHT, single plots: Surinam grass BASILISK
Source text: The original objective of this Example was to evaluate the herbicidal effect of ipfencarbazone when applied as a post emergent treatment to a range of selected crops and weeds. Unexpectedly, crop plant growth stimulation was observed. The actual species of weeds and crops are listed in the summary data tabulated below and in FIGS. 1-13. By convention each plant species has a Bayer code (5-letter name) with the scientific name for the plant referenced in FIGS. 1-13. In each Figure, each tray contains the same configuration of weeds and/or crops. In each Figure there is one replication of each treatment (six treatments in total). The top three photographs in each Figure show the Bayer Codes and bottom three photographs are aligned with the top three facilitating viewing of the same plant species. Throughout the Examples various abbreviations as conventional shorthand notation and will be appreciated by those skilled in the art. Some exemplary abbreviations include, “CV”=Co-efficient of Variation,” “LSD”=Least Significant Difference” (G/L (gram per L) AND GA/L (gram of active ingredient per L); “SC”=suspension concentrate formulation. The diluent in all treatments was water. By convention factors that are identical in all treatments (e.g. diluent and surfactant) are not listed in each treatment.
Methods: The indicated size pots (see Tables below) are filled with a specific soil, the soil properties being indicated below. The referenced crops and weeds are planted by hand in each pot. […] The experiments include six treatments each replicated three times on each crop/weed species. At a specific time after emergence each crop and weed species was treated with ipfencarbazone plus a non-ionic surfactant (NIS). In the present Example, the surfactant employed was ENERGIC™ (non-ionic surfactant). The application timing is indicated in each of the Tables (1 or 2 leaf stage) below. Ipfencarbazone plus surfactant was diluted in water and applied at a rate equivalent to about 250 L/ha. Ipfencarbazone was applied using a track sprayer. After treatment, the pots were randomized in a greenhouse. At each assessment (indicated by “days after treatment” or DAT) the height of each plant was measured. The letters next to each mean indicate the level of statistical significance.
Replications: 3, Untreated treatments: 1, Design: Randomized Complete Block (RCB), Treatment units: Treated ‘Plot’ experimental unit size, Dry Form. Unit: %, Treated ‘Plot’ experimental unit size Width: 1 meter, Treated ‘Plot’ experimental unit size Length: 1.4 meters, Application volume: 250 L/ha, Mix size: 0.15 liters, […]

[1] = 15 DA-A, 62.5 g ai/ha + Energic NIS 0.2 % v/v
[2] = 15 DA-A, 125 g ai/ha + Energic NIS 0.2 % v/v
[3] = 15 DA-A, 500 g ai/ha + Energic NIS 0.2 % v/v
[4] = 28 DA-A, 62.5 g ai/ha + Energic NIS 0.2 % v/v
[5] = 28 DA-A, 125 g ai/ha + Energic NIS 0.2 % v/v
[6] = 28 DA-A, 250 g ai/ha + Energic NIS 0.2 % v/v
[7] = 28 DA-A, 500 g ai/ha + Energic NIS 0.2 % v/v

Structure (SMILES): CC(C)N(C(=O)n1cnn(-c2ccc(Cl)cc2Cl)c1=O)c1ccc(F)cc1F [ARY-0572-001, ipfencarbazone]
- HEIGHT, percent of untreated check (APoC) (62.5 g ai/ha, 15 DA-A): (167.8%)
- HEIGHT, treatment mean (62.5 g ai/ha, 15 DA-A): 33.8 a cm
- HEIGHT, percent of untreated check (APoC) (62.5 g ai/ha, 28 DA-A): (164.1%)
- HEIGHT, treatment mean (62.5 g ai/ha, 28 DA-A): 55.4 bc cm
- HEIGHT, percent of untreated check (APoC) (125 g ai/ha, 15 DA-A): (139.1%)
- HEIGHT, treatment mean (125 g ai/ha, 15 DA-A): 28.1 ab cm
- HEIGHT, percent of untreated check (APoC) (125 g ai/ha, 28 DA-A): (146.7%)
- HEIGHT, treatment mean (125 g ai/ha, 28 DA-A): 49.6 cd cm
- HEIGHT, percent of untreated check (APoC) (250 g ai/ha, 15 DA-A): (141.3%)
- HEIGHT, treatment mean (250 g ai/ha, 15 DA-A): 28.5 ab cm
- HEIGHT, percent of untreated check (APoC) (250 g ai/ha, 28 DA-A): (233.6%)
- HEIGHT, treatment mean (250 g ai/ha, 28 DA-A): 78.9 a cm
- HEIGHT, percent of untreated check (APoC) (500 g ai/ha, 15 DA-A): (93.1%)
- HEIGHT, treatment mean (500 g ai/ha, 15 DA-A): 18.8 bc cm
- HEIGHT, percent of untreated check (APoC) (500 g ai/ha, 28 DA-A): (210.5%)
- HEIGHT, treatment mean (500 g ai/ha, 28 DA-A): 71.1 ab cm
- HEIGHT, percent of untreated check (APoC) (1000 g ai/ha, 15 DA-A): (54.0%)
- HEIGHT, treatment mean (1000 g ai/ha, 15 DA-A): 10.9 c cm
- HEIGHT, percent of untreated check (APoC) (1000 g ai/ha, 28 DA-A): (74.0%)
- HEIGHT, treatment mean (1000 g ai/ha, 28 DA-A): 25.0 e cm
- Plant HEIGHT, Mean [1]: 33.8 cm
- Plant HEIGHT, single plots [1]: 26.8 cm and 44.7 cm and 30.0 cm
- Plant HEIGHT, Mean [2]: 28.1 cm
- Plant HEIGHT, single plots [2]: 27.8 cm and 23.7 cm and 32.7 cm
- Plant HEIGHT, Mean (15 DA-A, 250 g ai/ha + Energic NIS 0.2 % v/v): 28.5 cm
- Plant HEIGHT, Mean [3]: 18.8 cm
- Plant HEIGHT, single plots [3]: 21.3 cm and 13.7 cm
- Plant HEIGHT, Mean (15 DA-A, 1000 g ai/ha + Energic NIS 0.2 % v/v): 10.9 cm
- Plant HEIGHT, Mean [4]: 55.4 cm
- Plant HEIGHT, single plots [4]: 48.3 cm and 76.0 cm and 42.0 cm
- Plant HEIGHT, Mean [5]: 49.6 cm
- Plant HEIGHT, single plots [5]: 53.0 cm and 44.7 cm and 51.0 cm
- Plant HEIGHT, Mean [6]: 78.9 cm
- Plant HEIGHT, single plots [6]: 89.7 cm and 91.7 cm and 55.3 cm
- Plant HEIGHT, Mean [7]: 71.1 cm
- Plant HEIGHT, single plots [7]: 67.3 cm and 77.0 cm and 69.0 cm
- Plant HEIGHT, Mean (28 DA-A, 1000 g ai/ha + Energic NIS 0.2 % v/v): 25.0 cm
